Experimental data from patent publication US20220194938A1, “NOVEL COMPOUNDS AND PHARMACEUTICAL COMPOSITIONS THEREOF FOR THE TREATMENT OF INFLAMMATORY DISORDERS” (GALAPAGOS NV, priority 2019, published 2022).
Converted amounts (≈) assume the structure as drawn. “And” between values parts separate entries of the source, which are not always exact repeats. Equal values may be shown once. Read-outs that look alike come from different tables or passages of the source.

Assay: Thermodynamic solubility
Format: physicochemical
Conditions: 37° C.; for solubility thermodynamic at 24 h: thermodynamic from solid
Excerpt: 4.2. Thermodynamic Solubility
Poor solubility, in particular poor thermodynamic solubility can limit the absorption of compounds from the gastrointestinal tract which in turn may reduce oral bioavailability.
Thermodynamic solubility investigates the solubility of a compound as a saturated solution in equilibrium, by opposition to kinetic solubility, which measures the solubility of a metastable solution where supersaturation may occur and provide over estimation of the actual solubility of the compound. (Klein 2010)
4.2.1. Thermodynamic Solubility—Protocol 1
(§1) In a 8 mL glass vial, 1-2 mg of dry matter of compound are added and stirred with the suitable buffers (Fed State Simulated Intestine Fluid, FeSSIF, or Fasted State Simulated Intestine Fluid, FaSSIF, or Fasted State Simulated Gastric Fluid, FaSSGF, or phosphate buffer pH 7.4) for 24 h at r.t. (for the buffer pH 7.4) or 37° C. (for the GI fluids). The concentration of the mixture is 1 mg/mL.
A volume of 500 μL are sampled, centrifuged for 10 min at 10 000 rpm and filtered. The samples are diluted in duplicates in DMSO (F100 and F10). Then, a final dilution (F100) in 80/20 H2O/MeCN containing the internal standard (warfarin) is used for LCMS-MS analysis.
A standard curve is made starting from a 200,000 ng/mL stock in DMSO, freshly prepared from dry matter. Then, successive concentrations at […], 1,000, 200 and 75 ng/mL in DMSO are prepared by using the Tecan robot.
Two quality control samples are made: one of 10,000 ng/mL and one of 500 ng/mL in DMSO, also starting from the DMSO working stock solution at 200,000 ng/mL.
The standard curve and quality controls are diluted a F100 in 80/20 H2O/MeCN (with internal standard) and analyzed on LC/MS-MS (API4000 or API5500).
(§2) The samples are analyzed on LC-MS with a flow rate of 0.6 mL/min. The mobile phase A is 0.1% formic acid in water and the mobile phase B is 0.1% formic acid in MeCN. The sample is run under positive or negative ion spray on Pursuit C18-5 μm (2.0×20 mm) column, from Agilent.
The peak areas of the standard curve are plotted in a graph and a linear or polynomial of the second order equation is used to calculate the unknown concentrations of the test compound.
4.2.2. Thermodynamic Solubility—Protocol 2
as §1, with “In an” for “In a”, “compound were” for “compound are”, “mixture was” for “mixture is”
A volume of 1000 μL were sampled, centrifuged for 10 min at 10 000 rpm and 500 μL of the supernatant were filtered on captiva plate. The samples were diluted in duplicates in DMSO (F100 and F10). Then, a final dilution (F100) in 80/20 H2O/MeCN containing the internal standard (warfarin) was used for LCMS-MS analysis.
A standard curve was made starting from a 40,000 ng/mL stock in DMSO, freshly prepared from dry matter. Then, successive concentrations at 15,000, 11,000, 6,000, 2,500, 1,000, 375, 150 and 75 ng/mL in DMSO were prepared.
Three quality control samples were made: one of 10,000, 1,500 and 200 ng/mL in DMSO, also starting from the DMSO working stock solution at 40,000 ng/mL.
The standard curve and quality controls were diluted a F100 in 80/20 H2O/MeCN (with internal standard) and analyzed on LC/MS-MS (API4000 or API5500).
as §2, with “were” for “are”, “was” for “is”, “90% acetonitrile and 10% of water.” for “MeCN.”, “Agilent. […]” for “Agilent.”

[1] = Fasted State Simulated Gastric Fluid, 24 h
[2] = Fasted State Simulated Intestine Fluid, 24 h
[3] = Fasted State Simulated Gastric Fluid (FaSSGF), fassgf or other biorelevant, Fasted State Simulated Gastric Fluid, read-out: Tsol FaSSGF
[4] = Fasted State Simulated Intestine Fluid (FaSSIF), fassif, Fasted State Simulated Intestine Fluid, read-out: Tsol FaSSIF
[5] = Fed State Simulated Intestine Fluid (FeSSIF), fessif, Fed State Simulated Intestine Fluid, read-out: Tsol FeSSIF

solubility thermodynamic at 24 h [3] | solubility thermodynamic at 24 h [4] | SMILES | further results
– | – | CNC(=O)c1cc2nc(CCC(C)(C)O)cn2cc1NC(=O)c1cccc(C(F)(F)F)n1 [Compound 2, 2-(3-hydroxy-3-methyl-butyl)-N-methyl-6-[[6-(trifluoromethyl)pyridine-2-carbonyl]amino]imidazo[1,2-a]pyridine-7-carboxamide] | Tsol FaSSGF [1]: 673 µg/mL and 969 µg/mL; Tsol FaSSIF [2]: 9.08 µg/mL and 9.24 µg/mL; Tsol FeSSIF (Fed State Simulated Intestine Fluid, 24 h): 35.4 µg/mL and 25.8 µg/mL
880 µg/mL (≈ 2080 µM) | 31.4 µg/mL (≈ 74.3 µM) | COc1cc2nc(CCC(C)(C)O)cn2cc1NC(=O)c1cccc(C(F)(F)F)n1 [Compound 3, N-[2-(3-hydroxy-3-methyl-butyl)-7-methoxy-imidazo[1,2-a]pyridin-6-yl]-6-(trifluoromethyl)pyridine-2-carboxamide] | solubility thermodynamic at 24 h [5]: 360 µg/mL (≈ 852 µM)
116 µg/mL (≈ 302 µM) | 125 µg/mL (≈ 325 µM) | COc1cc2nc(CCC(C)(C)O)cn2cc1NC(=O)c1cccn(C)c1=O [Compound 4, N-[2-(3-hydroxy-3-methyl-butyl)-7-methoxy-imidazo[1,2-a]pyridin-6-yl]-1-methyl-2-oxo-pyridine-3-carboxamide] | –
> 1000 µg/mL | 798 µg/mL (≈ 1940 µM) | COc1cc2nc(CCC(C)(C)O)cn2cc1NC(=O)c1cccn(C2CC2)c1=O [Compound 5, 1-cyclopropyl-N-[2-(3-hydroxy-3-methyl-butyl)-7-methoxy-imidazo[1,2-a]pyridin-6-yl]-2-oxo-pyridine-3-carboxamide] | solubility thermodynamic at 24 h [5]: > 1000 µg/mL
– | 692 µg/mL (≈ 1880 µM) | COc1cc2nc(CCC(C)(C)O)cn2cc1NC(=O)c1cccc(C)n1 [Compound 6, N-[2-(3-hydroxy-3-methyl-butyl)-7-methoxy-imidazo[1,2-a]pyridin-6-yl]-6-methyl-pyridine-2-carboxamide] | –
– | 15.2 µg/mL (≈ 37.6 µM) | COc1cc2nc(CCC(C)(C)O)cn2cc1NC(=O)c1cccc(C(F)F)n1 [Compound 7, 6-(difluoromethyl)-N-[2-(3-hydroxy-3-methyl-butyl)-7-methoxy-imidazo[1,2-a]pyridin-6-yl]pyridine-2-carboxamide] | –
– | 8.56 µg/mL (≈ 22.3 µM) | COc1cccc(C(=O)Nc2cn3cc(CCC(C)(C)O)nc3cc2OC)n1 [Compound 8, N-[2-(3-hydroxy-3-methyl-butyl)-7-methoxy-imidazo[1,2-a]pyridin-6-yl]-6-methoxy-pyridine-2-carboxamide] | –
> 1000 µg/mL | 188 µg/mL (≈ 447 µM) | COc1cc2nc(CCC(C)(C)O)cn2cc1NC(=O)c1cccn(C(F)F)c1=O [Compound 12, 1-(difluoromethyl)-N-[2-(3-hydroxy-3-methyl-butyl)-7-methoxy-imidazo[1,2-a]pyridin-6-yl]-2-oxo-pyridine-3-carboxamide] | –
– | 600 µg/mL (≈ 1330 µM) | COc1cc2nc(CCC(C)(C)O)cn2cc1NC(=O)c1cccn(CC(F)(F)F)c1=O [Compound 13, N-[2-(3-hydroxy-3-methyl-butyl)-7-methoxy-imidazo[1,2-a]pyridin-6-yl]-2-oxo-1-(2,2,2-trifluoroethyl)pyridine-3-carboxamide] | –
– | 253 µg/mL (≈ 596 µM) | COc1cc2nc(CCC(C)(C)O)cn2cc1NC(=O)c1cccn(C2CCC2)c1=O [Compound 18, 1-cyclobutyl-N-[2-(3-hydroxy-3-methyl-butyl)-7-methoxy-imidazo[1,2-a]pyridin-6-yl]-2-oxo-pyridine-3-carboxamide] | –
– | 2.63 µg/mL (≈ 6.29 µM) | COc1cc2nc(CCC(C)(C)O)cn2cc1NC(=O)c1cccc(C(C)(F)F)n1 [Compound 20, 6-(1,1-difluoroethyl)-N-[2-(3-hydroxy-3-methyl-butyl)-7-methoxy-imidazo[1,2-a]pyridin-6-yl]pyridine-2-carboxamide] | –
> 1000 µg/mL | 459 µg/mL (≈ 1150 µM) | CCn1cccc(C(=O)Nc2cn3cc(CCC(C)(C)O)nc3cc2OC)c1=O [Compound 23, 1-ethyl-N-[2-(3-hydroxy-3-methyl-butyl)-7-methoxy-imidazo[1,2-a]pyridin-6-yl]-2-oxo-pyridine-3-carboxamide] | –
> 1000 µg/mL | 2.44 µg/mL (≈ 5.52 µM) | COc1cc2nc(CCS(C)(=O)=O)cn2cc1NC(=O)c1cccc(C(F)(F)F)n1 [Compound 24, N-[7-methoxy-2-(2-methylsulfonylethyl)imidazo[1,2-a]pyridin-6-yl]-6-(trifluoromethyl)pyridine-2-carboxamide] | –
– | 41.5 µg/mL (≈ 96.4 µM) | COc1cc2nc(CCS(C)(=O)=O)cn2cc1NC(=O)c1cccn(C2CC2)c1=O [Compound 25, 1-cyclopropyl-N-[7-methoxy-2-(2-methylsulfonylethyl)imidazo[1,2-a]pyridin-6-yl]-2-oxo-pyridine-3-carboxamide] | –
> 1000 µg/mL | 2.97 µg/mL (≈ 6.82 µM) | CC(C)(O)CCc1cn2cc(NC(=O)c3cccc(C(F)(F)F)n3)c(C(N)=O)cc2n1 [Compound 31, 2-(3-hydroxy-3-methyl-butyl)-6-[[6-(trifluoromethyl)pyridine-2-carbonyl]amino]imidazo[1,2-a]pyridine-7-carboxamide] | solubility thermodynamic at 24 h [5]: 4.4 µg/mL (≈ 10.1 µM)
– | < 30 µg/mL | COCCc1cn2cc(NC(=O)c3cccc(C(F)(F)F)n3)c(OC)cc2n1 [Compound 35, N-[7-methoxy-2-(2-methoxyethyl)imidazo[1,2-a]pyridin-6-yl]-6-(trifluoromethyl)pyridine-2-carboxamide] | –
> 1000 µg/mL | 70.5 µg/mL (≈ 159 µM) | CCOc1c(NC(=O)c2cccn(C3CC3)c2=O)cn2cc(CCC(C)(C)O)nc2c1F [Compound 37, 1-cyclopropyl-N-[7-ethoxy-8-fluoro-2-(3-hydroxy-3-methyl-butyl)imidazo[1,2-a]pyridin-6-yl]-2-oxo-pyridine-3-carboxamide] | –
> 1000 µg/mL | 96.8 µg/mL (≈ 232 µM) | CCOc1c(NC(=O)c2cccn(C)c2=O)cn2cc(CCC(C)(C)O)nc2c1F [Compound 38, N-[7-ethoxy-8-fluoro-2-(3-hydroxy-3-methyl-butyl)imidazo[1,2-a]pyridin-6-yl]-1-methyl-2-oxo-pyridine-3-carboxamide] | –
> 1000 µg/mL | – | CCOc1c(NC(=O)c2cccn(C3CC3)c2=O)cn2cc(CCS(C)(=O)=O)nc2c1F [Compound 39, 1-cyclopropyl-N-[7-ethoxy-8-fluoro-2-(2-methylsulfonylethyl)imidazo[1,2-a]pyridin-6-yl]-2-oxo-pyridine-3-carboxamide] | Tsol FaSSGF [1]: >1000, μg/mL; Tsol FaSSIF [2]: 7.3 µg/mL and 7.50 µg/mL; solubility thermodynamic at 24 h [5]: 20.9 µg/mL (≈ 45.2 µM)
> 1000 µg/mL | 181 µg/mL (≈ 422 µM) | COc1c(NC(=O)c2cccn(C3CC3)c2=O)cn2cc(CCC(C)(C)O)nc2c1F [Compound 42, 1-cyclopropyl-N-[8-fluoro-2-(3-hydroxy-3-methyl-butyl)-7-methoxy-imidazo[1,2-a]pyridin-6-yl]-2-oxo-pyridine-3-carboxamide] | solubility thermodynamic at 24 h [5]: 612 µg/mL (≈ 1430 µM)
